Source: PubChem BioAssay AID1963868 (Molecular Pharmacology Branch, DTP, NCI, 2024)

System: KRAS PDC tumor spheroids (HUVEC+MSC), viability
Assay: Anticancer human tumor 254851-301-R-J1-PDC patient-derived colon carcinoma cell line growth inhibition [KRAS2]
Conditions: for IC50: curve of first compound; for viability, T/C: stronger effect = lower value
Text: Multicellular complex tumor spheroid response to RAS pathway inhibitors in combination with a targeted agents in patient-derived cell lines with oncogenic KRAS variants from multiple cancer types
A high-throughput screen of multi-cell type tumor spheroids was designed to identify active combinations of targeted small molecules and KRAS pathway inhibitors. Complex spheroids include a stromal component modeled by human endothelial cells (HUVEC) and fibroblasts modeled by human mesenchymal stem cells (MSCs). The concentration ranges selected for each drug and investigational agent were based upon clinically achievable concentrations if the clinical Cmax of the agent was known.
Compounds. The drugs and investigational agents: BI-3406 (NSC825286), BAY-293 (NSC824723), batoprotafib (TNO155; NSC825523), sotorasib (AMG 510; NSC818433), MRTX1257 (NSC819558), elimusertib (BAY 1895344; NSC800525), molibresib (GSK525762; NSC774829), temuterkib (LY3214996; NSC803410), venetoclax (NSC766270), alisertib (NSC759677), olaparib (NSC753686), talazoparib (NSC767125), erdafitinib (NSC781556), ipatasertib (NSC767898), cabozantinib (NSC761068), nintedanib (NSC756659), abemaciclib (NSC768073), docetaxel (NSC628503), trametinib (NSC758246), and sapanisertib (NSC764658) were obtained from the National Cancer Institute (NCI) Developmental Therapeutics Program Chemical Repository. The FDA-approved anticancer drug set is available from the Developmental Therapeutics Program. […] The stock solutions were prepared in dimethyl sulfoxide (DMSO, Sigma-Aldrich, St. Louis, MO, cat. D2650) at 800-fold the tested concentration and stored at -70 degrees C prior to their use. All drugs and investigational agents were tested over a range starting from a high concentration at or near the clinical Cmax and decreasing in half-log increments. If the clinical Cmax for an agent had not been determined, the highest concentration tested was 10 microM.
Cell Culture. All cells were maintained in an incubator at 37 degrees C and 5% CO2 with 95% humidity. The PDC lines were cultured according to standard operating procedures established by the NCI PDMR (https://pdmr.cancer.gov/sops/default.htm). Briefly, all PDCs were thawed and cultured in Matrigel-coated flasks prepared with a working solution of 1X Ham's F-12 nutrient mix, without supplementation (Invitrogen, Waltham, MA, cat. 11765054), 100 U/mL penicillin-streptomycin (Invitrogen, cat. 15140122), and 2.5% Matrigel (Corning Inc., Corning, NY, cat. 354248) for the first three passages. All PDCs were cultured in complete DMEM/F-12 media containing advanced DMEM/F-12 (Invitrogen, cat. 12634028), 4.9% defined fetal bovine serum, heat inactivated (HyClone Laboratories Inc., Logan, UT, cat. SH30070.03HI), 389 ng/mL hydrocortisone (Sigma-Aldrich, cat. H4001), 9.7 ng/mL human EGF recombinant protein (Invitrogen, cat. PHG0313), 23.4 microg/mL adenine (Sigma-Aldrich, cat. A2786), 97.3 U/mL penicillin-streptomycin (Invitrogen, cat. 15140122), 1.9 mM L-glutamine (Invitrogen, cat. 25030081), and 9.7 microM Y-27632 dihydrochloride (Tocris Bioscience, Bristol, United Kingdom, cat. 1254). The PDCs were cultured in complete DMEM/F12 media without 9.7 microM Y-27632 dihydrochloride for at least two passages prior to the screen. The established cell line HOP-62 was cultured in RPMI 1640 medium, HEPES (Invitrogen, cat. 22400105) with 10% defined fetal bovine serum (HyClone Laboratories Inc., cat. SH30070.03) and 2 mM L-glutamine (Invitrogen, cat. 25030081). The pooled donor HUVEC were cultured in endothelial cell growth medium 2 (PromoCell, Heidelberg, Germany, cat. C-22011) and the hMSC were cultured in mesenchymal stem cell growth medium 2 (PromoCell, cat. C-28009). For all experiments, HUVEC and hMSC were used at passages </=5, while the malignant cell lines were used at passages </=15. […]

[1] = second compound 0.1 µM, first compound 0.0316 µM
[2] = second compound 0.1 µM, first compound 0.1 µM
[3] = second compound 0.1 µM, first compound 0.316 µM
[4] = second compound 0.1 µM, first compound 1 µM
[5] = second compound 0.1 µM, first compound 3.16 µM
[6] = second compound 0.316 µM, first compound 0.0316 µM
[7] = second compound 0.316 µM, first compound 0.1 µM
[8] = second compound 0.316 µM, first compound 0.316 µM
[9] = second compound 0.316 µM, first compound 1 µM
[10] = second compound 0.316 µM, first compound 3.16 µM
[11] = second compound 1 µM, first compound 0.0316 µM
[12] = second compound 1 µM, first compound 0.1 µM
[13] = second compound 1 µM, first compound 0.316 µM
[14] = second compound 1 µM, first compound 1 µM
[15] = second compound 1 µM, first compound 3.16 µM
[16] = second compound 3.16 µM, first compound 0.0316 µM
[17] = second compound 3.16 µM, first compound 0.1 µM
[18] = second compound 3.16 µM, first compound 0.316 µM
[19] = second compound 3.16 µM, first compound 1 µM
[20] = second compound 3.16 µM, first compound 3.16 µM
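Further: spheroids exposed to compounds for seven days before readout.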
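Wherever viability, T/C is given: 100% = DMSO vehicle control luminescence of the spheroids.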

| SMILES | IC50 (second compound 0.1 µM) | IC50 (second compound 0.316 µM) | IC50 (second compound 1 µM) | IC50 (second compound 3.16 µM) | viability, T/C [1] | viability, T/C [2] | viability, T/C [3] | viability, T/C [4] | viability, T/C [5] | viability, T/C [6] | viability, T/C [7] | viability, T/C [8] | viability, T/C [9] | viability, T/C [10] | viability, T/C [11] | viability, T/C [12] | viability, T/C [13] | viability, T/C [14] | viability, T/C [15] | viability, T/C [16] | further results |
| --- | --- | --- | --- | --- | --- | --- | --- | --- | --- | --- | --- | --- | --- | --- | --- | --- | --- | --- | --- | --- | --- |
| O=C(c1cc(Cc2n[nH]c(=O)c3ccccc23)ccc1F)N1CCN(C(=O)C2CC2)CC1 + C=CC(=O)N1CCN(c2nc(OCC3CCCN3C)nc3c2CCN(c2cccc4cccc(C)c24)C3)CC1CC#N | > 10000 nM | > 10000 nM | > 10000 nM | > 10000 nM | 105% | 106% | 97.8% | 104% | 93.5% | 101% | 99.6% | 102% | 99.7% | 98.4% | 96.8% | 98.7% | 101% | 92% | 99.8% | 67.8% | IC50 (second compound 0.0316 µM): > 10000 nM; viability, T/C (second compound 0.0316 µM, first compound 0.0316 µM): 108%; viability, T/C (second compound 0.0316 µM, first compound 0.1 µM): 111%; viability, T/C (second compound 0.0316 µM, first compound 0.316 µM): 96%; viability, T/C (second compound 0.0316 µM, first compound 1 µM): 96.4%; viability, T/C (second compound 0.0316 µM, first compound 3.16 µM): 81.5%; viability, T/C (second compound 0.0316 µM, first compound 10 µM): 84.9%; viability, T/C (second compound 0.1 µM, first compound 10 µM): 92.6%; viability, T/C (second compound 0.316 µM, first compound 10 µM): 92.7%; viability, T/C (second compound 1 µM, first compound 10 µM): 92.1%; viability, T/C [17]: 55.4%; viability, T/C [18]: 72.5%; viability, T/C [19]: 60.1%; viability, T/C [20]: 69.4%; viability, T/C (second compound 3.16 µM, first compound 10 µM): 69.4% |
| CC(=O)OC12COC1CC(O)C1(C)C(=O)C(O)C3=C(C)C(OC(=O)C(O)C(NC(=O)OC(C)(C)C)c4ccccc4)CC(O)(C(OC(=O)c4ccccc4)C21)C3(C)C (stereo not given) + C=CC(=O)N1CCN(c2nc(=O)n(-c3c(C)ccnc3C(C)C)c3nc(-c4c(O)cccc4F)c(F)cc23)C(C)C1 | 259 nM | 243 nM | 244 nM | 253 nM | 94.6% | 74.4% | 44.6% | 30.5% | 26.7% | 98% | 70.8% | 44.9% | 29.8% | 27.4% | 84.5% | 68.2% | 45% | 30% | 26.5% | 93.5% | IC50 (second compound 10 µM): 208 nM; viability, T/C (second compound 0.1 µM, first compound 0.01 µM): 104%; viability, T/C (second compound 0.316 µM, first compound 0.01 µM): 90.9%; viability, T/C (second compound 1 µM, first compound 0.01 µM): 88.1%; viability, T/C (second compound 3.16 µM, first compound 0.01 µM): 105%; viability, T/C [17]: 70.2%; viability, T/C [18]: 45.7%; viability, T/C [19]: 30.6%; viability, T/C [20]: 27.5%; viability, T/C (second compound 10 µM, first compound 0.01 µM): 93.5%; viability, T/C (second compound 10 µM, first compound 0.0316 µM): 87.1%; viability, T/C (second compound 10 µM, first compound 0.1 µM): 70.9%; viability, T/C (second compound 10 µM, first compound 0.316 µM): 38.1%; viability, T/C (second compound 10 µM, first compound 1 µM): 26.1%; viability, T/C (second compound 10 µM, first compound 3.16 µM): 24.1% |
